Assay results taken from patent US20170232083A1, “METHODS OF DIAGNOSIS AND TREATMENT OF CELIAC DISEASE IN CHILDREN” (priority 2014, published 2017).

Legend:
[1] = system: PBMC from newly diagnosed / untreated CD children; conditions: Liu et al.; cited from earlier work
[2] = system: PBMC (polyclonal gluten-specific T cells) of paediatric and adult CD patients; conditions: corresponding adult data shown for comparison (14); cited from earlier work
[3] = system: PBMC (polyclonal gluten-specific T cells) of paediatric and adult CD patients; assay: IFN-γ ELISpot of PBMC after 3 day oral wheat challenge (SFU, % of maximal peptide response, dominance scores, EC50; Examples 5-6); format: cell-based, human; conditions: for Dominance score 3-5yrs (n = 9): CD children 3-5yrs, n = 9, following wheat challenge; for Dominance score 3-5yrs (n = 9) / Dominance score 6-10yrs (n = 10) / Dominance score 11-18yrs (n = 11): mean percentage of maximal peptide response; for Dominance score 6-10yrs (n = 10): CD children 6-10yrs, n = 10, following wheat challenge; for Dominance score 11-18yrs (n = 11): CD children 11-18yrs, n = 11, following wheat challenge; for Dominance score Mean all ages: CD children, following wheat challenge (Table 9); for Dominance scores 3-5 yrs: children with celiac disease 3-5 yrs after wheat challenge (Table 14); for Dominance scores 6-10 yrs: children with celiac disease 6-10 yrs after wheat challenge (Table 14); for Dominance scores 11-18 yrs: children with celiac disease 11-18 yrs after wheat challenge (Table 14); for Dominance scores Mean all ages: mean of all subjects (Table 14); for IFN-γ ELISpot response: after oral wheat challenge
[4] = patient A, 11-17 yrs, cut-off 10 SFU
[5] = patient D, max peptide 30.5 SFU
[6] = patient E, H, 11-17 yrs, cut-off 10 SFU
[7] = patient F, 11-17 yrs, cut-off 10 SFU
[8] = patient G, 11-17 yrs, cut-off 10 SFU
[9] = patient H (HLA-DQ2.5 homozygote), 3-5yrs, cut-off 10 SFU
[10] = patient H, 11-17 yrs, cut-off 10 SFU
[11] = patient ID not given, 11-17 yrs, cut-off 10 SFU
[12] = patient ID not given, max peptide 95 SFU
[13] = patient N, 3-5yrs, cut-off 10 SFU
[14] = patient P, 11-17 yrs, cut-off 21.6 SFU
[15] = patient Q, 11-17 yrs, cut-off 10 SFU
[16] = patient U, H, 11-17 yrs, cut-off 10 SFU
[17] = patient V, 6-10 yrs, cut-off 10 SFU
[18] = patient Y, 6-10 yrs, cut-off 10 SFU
[19] = patient eleven, 6-10 yrs, cut-off 10 SFU
[20] = patient five, max peptide 48 SFU
[21] = patient four, 3-5yrs, cut-off 10 SFU
[22] = patient seven, 6-10 yrs, cut-off 10.5 SFU
[23] = patient ten, 3-5yrs, cut-off 10 SFU
[24] = patient three, 6-10 yrs, cut-off 10.5 SFU
[25] = patient twelve, 11-17 yrs, cut-off 10 SFU
[26] = patient two, 3-5yrs, cut-off 10 SFU
[27] = patient two, max peptide 60 SFU

PFPQPELPY [DQ2.5-glia-α1a]
individual CD children with responses [1]: 3/10

QPFPQPQQPIPVQ [Peptide W04]
Dominance scores 18+ yrs [2]: 31 | Dominance score 3-5yrs (n = 9) [3]: 44.5 | Dominance score 6-10yrs (n = 10) [3]: 44.2 | Dominance score 11-18yrs (n = 11) [3]: 47.5 | Dominance score Mean all ages [3]: 45.6 | Dominance scores 3-5 yrs [3]: 43 | Dominance scores 6-10 yrs [3]: 44 | Dominance scores 11-18 yrs [3]: 48 | Dominance scores Mean all ages [3]: 45 | IFN-γ ELISpot response [3, 4]: 1 SFU | Significant response as percentage of maximal peptide SFU [3, 5]: ′′ (21-40% = ′′) | IFN-γ ELISpot response [3, 6]: 51 SFU | Significant response as percentage of maximal peptide SFU ([3]; patient E, max peptide 224 SFU): ′′ (21-40% = ′′) | IFN-γ ELISpot response [3, 7]: 40 SFU | Significant response as percentage of maximal peptide SFU ([3]; patient F, max peptide 178 SFU): ′′ (21-40% = ′′) | IFN-γ ELISpot response [3, 8]: 4 SFU | IFN-γ ELISpot response [3, 9]: 9 SFU | IFN-γ ELISpot response [3, 10]: 4 SFU | IFN-γ ELISpot response [3, 11]: 65 SFU | Significant response as percentage of maximal peptide SFU [3, 12]: ′′′ (41-70% = ′′′) | Significant response as percentage of maximal peptide SFU ([3]; patient J, max peptide 196 SFU): ′′′ (41-70% = ′′′) | Significant response as percentage of maximal peptide SFU ([3]; patient K, max peptide 53 SFU): ′′ (21-40% = ′′) | IFN-γ ELISpot response [3, 13]: 5 SFU | IFN-γ ELISpot response [3, 14]: 21 SFU | IFN-γ ELISpot response [3, 15]: 37 SFU | Significant response as percentage of maximal peptide SFU ([3]; patient Q, max peptide 97 SFU): ′′ (21-40% = ′′) | IFN-γ ELISpot response [3, 16]: 30 SFU | Significant response as percentage of maximal peptide SFU ([3]; patient U, max peptide 81 SFU): ′′ (21-40% = ′′) | IFN-γ ELISpot response [3, 17]: 11 SFU | Significant response as percentage of maximal peptide SFU ([3]; patient V, max peptide 35 SFU): ′′ (21-40% = ′′) | IFN-γ ELISpot response [3, 18]: 3 SFU | IFN-γ ELISpot response [3, 19]: 4 SFU | Significant response as percentage of maximal peptide SFU [3, 20]: + (>70% = +) | IFN-γ ELISpot response [3, 21]: 9 SFU | IFN-γ ELISpot response [3, 22]: 13 SFU | Significant response as percentage of maximal peptide SFU ([3]; patient seven, max peptide 27 SFU): ′′′ (41-70% = ′′′) | IFN-γ ELISpot response [3, 23]: 9 SFU | IFN-γ ELISpot response [3, 24]: 136 SFU | IFN-γ ELISpot response [3, 25]: 12 SFU | IFN-γ ELISpot response [3, 26]: 17 SFU | Significant response as percentage of maximal peptide SFU [3, 27]: ′′ (21-40% = ′′)

PQPELPYPQ [DQ2.5-glia-α2]
individual CD children with responses [1]: 0/10

W08 (LQPFPQPELPYSQP) [Peptide W08]
Dominance scores 18+ yrs [2]: 8 | Dominance score 3-5yrs (n = 9) [3]: 42.1 | Dominance score 6-10yrs (n = 10) [3]: 51.7 | Dominance score 11-18yrs (n = 11) [3]: 40.2 | Dominance score Mean all ages [3]: 44.9 | Dominance scores 3-5 yrs [3]: 45 | Dominance scores 6-10 yrs [3]: 52 | Dominance scores 11-18 yrs [3]: 40 | Dominance scores Mean all ages [3]: 45

QPFPQPEQPFPWQ [Peptide W03, contains DQ2.5-glia-w1 and w2]
Dominance scores 18+ yrs [2]: 35 | magnitude of T cell responses, HLA-DQ2.5 homozygous vs heterozygous [3]: significantly greater | Dominance score 3-5yrs (n = 9) [3]: 66.6 | Dominance score 6-10yrs (n = 10) [3]: 51.5 | Dominance score 11-18yrs (n = 11) [3]: 46.5 | Dominance score Mean all ages [3]: 54.2 | dominance hierarchy across all age groupings ([3]; Example 5): most dominant three peptides | CD children responding (polyclonal T cells after oral wheat challenge) ([3]; Example 5, n=22): 68.2% | dominance hierarchy across all age groups ([3]; Example 6): most dominant four peptides | CD children responding (polyclonal T cells induced by oral wheat challenge) ([3]; Example 6, n=22): 68% | response to native vs deamidated form ([3]; all age groups): Deamidation enhanced the response | Dominance scores 3-5 yrs [3]: 65 | Dominance scores 6-10 yrs [3]: 51 | Dominance scores 11-18 yrs [3]: 46 | Dominance scores Mean all ages [3]: 54 | IFN-γ ELISpot responses Day 0 prior to vs Day 6 after wheat challenge ([3]; p<0.05, Kruskal Wallis): Significant gluten-specific responses were observed on Day 6 only | IFN-γ ELISpot response [3, 4]: 5 SFU | Significant response as percentage of maximal peptide SFU [3, 5]: ′′′ (41-70% = ′′′) | IFN-γ ELISpot response [3, 6]: 61 SFU | Significant response as percentage of maximal peptide SFU ([3]; patient E, max peptide 224 SFU): ′′ (21-40% = ′′) | IFN-γ ELISpot response [3, 7]: 77 SFU | Significant response as percentage of maximal peptide SFU ([3]; patient F, max peptide 178 SFU): ′′′ (41-70% = ′′′) | IFN-γ ELISpot response [3, 8]: 5 SFU | IFN-γ ELISpot response [3, 9]: 48 SFU | IFN-γ ELISpot response [3, 10]: 6 SFU | IFN-γ ELISpot response [3, 11]: 83 SFU | Significant response as percentage of maximal peptide SFU [3, 12]: + (>70% = +) | Significant response as percentage of maximal peptide SFU ([3]; patient J, max peptide 196 SFU): ′′′ (41-70% = ′′′) | Significant response as percentage of maximal peptide SFU ([3]; patient K, max peptide 53 SFU): ′′ (21-40% = ′′) | Significant response as percentage of maximal peptide SFU ([3]; patient M, max peptide 48 SFU): + (>70% = +) | IFN-γ ELISpot response [3, 13]: 19 SFU | Significant response as percentage of maximal peptide SFU ([3]; patient N, max peptide 19 SFU): + (>70% = +) | IFN-γ ELISpot response [3, 14]: 43 SFU | Significant response as percentage of maximal peptide SFU ([3]; patient P, max peptide 64 SFU): ′′′ (41-70% = ′′′) | IFN-γ ELISpot response [3, 15]: 54 SFU | Significant response as percentage of maximal peptide SFU ([3]; patient Q, max peptide 97 SFU): ′′′ (41-70% = ′′′) | IFN-γ ELISpot response [3, 16]: 34 SFU | Significant response as percentage of maximal peptide SFU ([3]; patient U, max peptide 81 SFU): ′′′ (41-70% = ′′′) | IFN-γ ELISpot response [3, 17]: 34 SFU | Significant response as percentage of maximal peptide SFU ([3]; patient V, max peptide 35 SFU): + (>70% = +) | IFN-γ ELISpot response [3, 18]: 8 SFU | IFN-γ ELISpot response [3, 19]: 6 SFU | Significant response as percentage of maximal peptide SFU [3, 20]: + (>70% = +) | IFN-γ ELISpot response [3, 21]: 18 SFU | Significant response as percentage of maximal peptide SFU ([3]; patient four, max peptide 44 SFU): ′′′ (41-70% = ′′′) | IFN-γ ELISpot response [3, 22]: 4 SFU | IFN-γ ELISpot response [3, 23]: 8 SFU | IFN-γ ELISpot response [3, 24]: 13 SFU | IFN-γ ELISpot response [3, 25]: 17 SFU | IFN-γ ELISpot response [3, 26]: 60 SFU | Significant response as percentage of maximal peptide SFU [3, 27]: + (>70% = +)
